Assays:
[1] = reported by A. Straub et al., Bioorg. Med. Chem. Lett. 11, 781-784 (2001); cited from earlier work
aorta rings = assay: Vasorelaxant effect in vitro (phenylephrine-contracted aorta rings); assay type: cell-based, Rabbits; conditions: Oryctolagus cuniculus; rabbit aorta rings, contraction induced by phenylephrine, 37° C., 0.1% DMSO; read-out: IC50 (concentration necessary to reduce the level of contraction by 50%)
Protocol: Rabbits are stunned by a blow to the back of the neck and are exsanguinated. The aorta is removed, freed of adherent tissue, divided into rings 1.5 mm wide and placed singly in 5 ml organ baths with carbogen-gassed Krebs-Henseleit solution of the following composition (in each case mM): NaCl: 119; KCl: 4.8; CaCl2×2H2O: 1; MgSO4×7H2O: 1.4; KH2PO4: 1.2; NaHCO3: 25; glucose: 10, under an initial tension at 37° C. The force of contraction is detected with Statham UC2 cells, amplified and digitized via A/D converters (DAS-1802 HC, Keithley Instruments Munich), and recorded in parallel on chart recorders. A contraction is induced by adding phenylephrine to the bath cumulatively in increasing concentration. After several control cycles, the substance to be investigated is added in each further run in increasing dosage each time, and the level of contraction is compared with the level of contraction achieved in the last preceding run. The concentration necessary to reduce the level of contraction by 50% (IC50) is calculated therefrom. The standard application volume is 5 μl and the DMSO content in the bath solution corresponds to 0.1%.

IC50 (aorta rings) [µM] | SMILES | vasorelaxant effect [1]
 | Fc1ccccc1Cn1nc(-c2nnn[nH]2)c2cccnc21 [1-(2-fluorobenzyl)-3-(1H-tetrazol-5-yl)-1H-pyrazolo[3,4-b]pyridine] | moderately vasorelaxant effect
2 | c1cnc2c(c1)c(-c1nnn[nH]1)nn2CC1CCCCCC1 [Example 1, 1-(Cycloheptylmethyl)-3-(1H-tetrazol-5-yl)-1H-pyrazolo[3,4-b]pyridine] | 
4.5 | Fc1cccc(Cn2nc(-c3nnn[nH]3)c3cccnc32)c1F [Example 4, 1-(2,3-Difluorobenzyl)-3-(1H-tetrazol-5-yl)-1H-pyrazolo[3,4-b]pyridine] | 
6.1 | Clc1ccc(Cn2nc(-c3nnn[nH]3)c3cccnc32)s1 [Example 7, 1-[(5-Chloro-2-thienyl)methyl]-3-(1H-tetrazol-5-yl)-1H-pyrazolo[3,4-b]pyridine] | 

Source: patent US20100113507A1, “3-Tetrazolyl Indazoles, 3-Tetrazolyl Pyrazolopyridines, and use Thereof” (BAYER HEALTHCARE AG, priority 2006, published 2010)
